Assay results as given in US20110117168A1, “METHODS AND COMPOSITIONS FOR SOFT TISSUE REPAIR” (AFFINERGY, INC., priority 2009, published 2011).
Ends that are not written are not given here.

Tests used:
[1] = system: human ASCs; assay: Biotinylated peptide cell binding specificity by flow cytometry (Neutravidin-PE); type: cell-based; conditions: 25 μM peptide solution, 30 min at 4° C.
Source text: (§1) The synthetic biotinylated cell binding peptide SEQ ID NO: 4 was examined for its ability to specifically bind MSCs compared to a number of other cells types including adipose-derived mesenchymal stem cells (ASCs), dermal fibroblasts, rodent MSCs, red blood cells, monocytes, lymphocytes and granulocytes. The cell binding peptide was biotinylated as described herein at Example 2. Cultured cells of each type were either purchased (ASCs and dermal fibroblasts) or isolated from rodent bone marrow (rodent MSCs) or human blood. Cells were first harvested and resuspended at 10^6/mL in PBS+2% fetal bovine serum (FBS). An aliquot of cells (50 μL) was incubated in 50 μL of peptide solution (25 μM in PBS+FBS) for 30 min at 4° C. Cells were then washed twice in PBS+FBS with 300×g centrifugation for 5 min between washes. Fluorescently-tagged neutravidin (Neutravidin-PE from INVITROGEN) was then added to the cells to label biotinylated peptide bound to cells. Neutravidin-PE was diluted 1:250 from stock and applied at 50 μL to cells. Cells were then washed in PBS+FBS, and acquired on a BD […]. Peptide reactivity was then measured as percent positivity relative to Neutravidin-PE staining without the addition of biotinylated peptide.

[2] = system: human MSCs; assay: as above; type: cell-based; conditions: 25 μM peptide solution, 30 min at 4° C.
Source text: as §1

[3] = system: MSCs; assay: Immunoreactivity of cells captured from bone marrow aspirate; type: cell-based, human; conditions: CD29, CD44, CD73, CD105, CD166, CD90, CD45, CD34
Procedure: This experiment was performed to examine the ability of cell binding peptide SEQ ID NO: 4 to capture MSCs directly from bone marrow aspirate in comparison to two separate antibodies against the CD105 I antigen (CD105) and the MSCA-1 stem cell antigen (MSCA-1). This experiment employed biotinylated peptides with streptavidin-coated […] magnetic beads. The peptides were biotinylated as described herein at Example 2. […] For the antibody capture experiment, magnetic beads having covalently attached CD105 or MSCA-1 antibody were employed ([…]). Prior to incubation with the peptides and antibodies, bone marrow aspirate (BMA) was mixed with 5 volumes of 10 mM ammonium chloride for 1-2 min at room temperature to lyse red blood cells. The lysate was centrifuged for 5 min at 300×g and the supernatant discarded. The cell pellet was washed with wash buffer (PBS+0.5% bovine serum albumin+0.5 mM EDTA) and cells were resuspended in […] peptide at a concentration of 10^8 per mL. For peptide binding studies, the cell suspension was incubated with the biotinylated peptides for 30 min at 4° C. to allow for binding. After incubation, cells were spun down at 300×g for 5 min, and peptide solution was aspirated. Cells were then rinsed twice with wash buffer, with centrifugation between washes. […] Colony forming units (CFUs) were counted after 14 days in culture. […]

[4] = system: HUVECs; assay: Endothelial cell phenotype and anti-thrombogenic protein expression on peptide-modified collagen; type: cell-based, human; conditions: HUVECs cultured 24 hours; t-PA and 6-keto Prostaglandin F1a ELISA, flow cytometry
Procedure: Once immobilized on a vascular graft, endothelial cells must retain their characteristic properties of promoting endothelialization. Therefore, the phenotype, viability, and anti-thrombogenic protein expression profiles were evaluated for endothelial cells in the presence of collagen modified with the endothelial cell binding peptide SEQ ID NO: 4 (generated according to Example 7 using BS^3 reagent). […] Specifically, HUVECs were plated on SEQ ID NO: 4 peptide-modified collagen, collagen with 10 μM free SEQ ID NO: 4 peptide or collagen alone for 24 hours. Flow cytometry was performed using a BD […], and ELISAs were performed according to manufacturers instructions. (FIGS. 22A & 22B). Tissue-type Plasminogen Activator (t-PA) and 6-keto Prostaglandin F1a protein expression levels secreted in this assay are aligned with other reports on cultured HUVECS (Kimura and Yokoi-Hayashi, Biochim Biophys Acta, 1996, 1310:1-4; Merhi-Soussi et al., J Leukoc Biol, 2000, 68:881-9).

[5] = system: MSCs; assay: Adipocyte differentiation of peptide-captured MSCs (Oil Red O); type: cell-based, human; conditions: 21 days in adipocyte differentiation medium
Procedure: Adipocyte differentiation. After capture of MSCs using cell binding peptide SEQ ID NO: 4 with the […] magnetic system according to Example 6, the ability of the captured cells to differentiate into an adipocyte lineage was examined. The MSCs present in the […] column eluants (see Example 6) were cultured for 21 days in complete medium (DMEM, 10% FBS, 100 units/mL penicillin, 100 μg/mL streptomycin, and 2 mM glutamine) supplemented with 0.5 mM isobutyl methylxanthine, 1 μM dexamethasone, 10 μM insulin, 200 μM indomethacin, and 1% antibiotic/antimycotic. Following the 21 day incubation, the cells were fixed in 4% paraformaldehyde in PBS for 15 minutes, washed in 60% isopropanol for 5 minutes, and stained with Oil Red 0 (SIGMA) for 10 minutes to determine the extent of adipogenesis (see FIG. 26, panels A (undifferentiated MSCs) and panel B (adipocyte differentiated MSCs)). The image of the adipose differentiated cells (FIG. 26, panel B) contains a larger magnification inset where the lipid vacuoles are clearly visible.

[6] = system: MSCs; assay: Osteoblast differentiation of peptide-captured MSCs (Alizarin Red S); type: cell-based, human; conditions: 14 days in osteoblast differentiation medium
Procedure: Osteoblast differentiation. For osteogenic differentiation, the MSCs present in the […] column eluants (see Example 6) were cultured for 14 days in complete medium supplemented with 0.1 μM dexamethasone, 50 μM ascorbate-2-phosphate, 10 mM β-glycerophosphate, and 1% antibiotic/antimycotic. Calcium mineralization was measured by Alizarin Red S (SIGMA) staining to reveal mineralizing osteoblasts (see FIG. 26, panel C (undifferentiated MSCs) and panel D (osteoblast differentiated MSCs)).

SSFWDVCQGDGTCYGGGSR (SSFWDVCQGDGTCYGGGSRGSSG-{K(biotin)}; cysteine pairing not given here) [SEQ ID NO: 4, tested biotinylated with GSSGK(biotin) or other spacer at the C-terminus]
binding to human ASCs (percent positivity relative to Neutravidin-PE staining) [1]: high binding
binding to human MSCs (percent positivity relative to Neutravidin-PE staining) [2]: high binding
immunoreactivity of isolated cells compared with CD105 isolated cells [3]: no changes were observed
endothelial cell phenotype and anti-thrombogenic protein secretion [4]: maintained their endothelial cell phenotype and their ability to secrete anti-thrombogenic proteins
adipocyte differentiation of captured MSCs [5]: adipogenesis pathway remains intact
osteoblast differentiation of captured MSCs [6]: osteogenic pathway remains intact
